{"source": "patent US9695155B2", "about": "“Herbicidal substituted pyrimidinyloxy benzene compounds” (E. I. DU PONT DE NEMOURS AND COMPANY, priority 2013, dated 2017)", "key": {"green foxtail": {"test_system": "green foxtail", "assay": "Test D preemergence", "type": "in vivo, Setaria viridis", "conditions": "Setaria viridis, pre-emergence, scale 0-100, read-out: Plant response rating, Foxtail, Green", "in_short": "(§1)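 Species were sown in silt loam for preemergence treatment, or grown in peat-based medium to the 1–4-leaf stage (2–18 cm) for postemergence sprays. Test chemicals were formulated in a non-phytotoxic solvent mixture with surfactant. After 7–21 days in a controlled environment, plants were rated visually against controls on a 0 (no effect) to 100 (complete control) scale.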"}, "barnyardgrass": {"test_system": "barnyardgrass", "assay": "Test E postemergence", "type": "in vivo, Echinochloa crus-galli", "conditions": "Echinochloa crus-galli, post-emergence, read-out: Plant response rating, Barnyardgrass", "in_short": "(§2)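 Response was scored visually on a 0-100 scale (100 = complete control) versus controls after 14 to 21 days in the greenhouse. Test chemicals, formulated with surfactant in a non-phytotoxic solvent mixture, had been applied preemergence to seeds in silt loam soil or postemergence to 1- to 4-leaf plants in potting medium.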"}, "chamomile": {"test_system": "chamomile", "assay": "Test D postemergence", "type": "in vivo, Matricaria inodora", "conditions": "Tripleurospermum inodorum, post-emergence, scale 0 to 100 (0 no effect, 100 complete control), read-out: Plant response rating, Chamomile", "in_short": "as §1"}, "canarygrass": {"test_system": "canarygrass", "assay": "Test D preemergence", "type": "in vivo, Phalaris minor", "conditions": "Phalaris minor, pre-emergence, scale 0-100, read-out: Plant response rating, Canarygrass", "in_short": "as §1"}, "speedwell": {"test_system": "speedwell", "assay": "Test D postemergence", "type": "in vivo, Veronica persica", "conditions": "Veronica persica, post-emergence, scale 0 to 100 (0 no effect, 100 complete control), read-out: Plant response rating, Speedwell", "in_short": "as §1"}, "pigweed": {"test_system": "pigweed", "assay": "Test D preemergence", "type": "in vivo, Amaranthus retroflexus", "conditions": "Amaranthus retroflexus, pre-emergence", "in_short": "as §1"}, "galium": {"test_system": "galium", "assay": "Test D preemergence", "type": "in vivo, Galium aparine", "conditions": "Galium, pre-emergence, scale 0-100, read-out: Plant response rating, Galium", "in_short": "as §1"}, "waterhemp": {"test_system": "waterhemp", "assay": "Test E postemergence", "type": "in vivo, Amaranthus rudis", "conditions": "Amaranthus tuberculatus, post-emergence, Postemergence, scale 0 to 100, read-out: Plant response rating, Waterhemp", "in_short": "as §2"}, "[1]": {"test_system": "waterhemp_RES2 (ALS & HPPD resistant common waterhemp)", "assay": "Test E postemergence", "type": "in vivo, Amaranthus rudis", "conditions": "Amaranthus tuberculatus, post-emergence, read-out: Plant response rating, Waterhemp_RES2", "in_short": "as §2"}, "chickweed": {"test_system": "chickweed", "assay": "Test D postemergence", "type": "in vivo, Stellaria media", "conditions": "Stellaria media, post-emergence, scale 0 to 100 (0 no effect, 100 complete control), read-out: Plant response rating, Chickweed", "in_short": "as §1"}, "windgrass": {"test_system": "windgrass", "assay": "Test D preemergence", "type": "in vivo, Apera spica-venti", "conditions": "Apera spica-venti, pre-emergence", "in_short": "as §1"}, "winter barley": {"test_system": "winter barley", "assay": "Test D postemergence", "type": "in vivo, Hordeum vulgare", "conditions": "Hordeum vulgare, post-emergence, Postemergence, scale 0 to 100 (0 no effect, 100 complete control), read-out: Plant response rating, Barley, Winter", "in_short": "as §1"}, "spring barley": {"test_system": "spring barley", "assay": "Test D postemergence", "type": "in vivo, Hordeum vulgare", "conditions": "Hordeum vulgare, post-emergence, Postemergence, scale 0 to 100 (0 no effect, 100 complete control), read-out: Plant response rating, Barley, Spring", "in_short": "as §1"}, "[2]": {"conditions": "Postemergence, 31 g ai/ha, scale 0 to 100"}, "[3]": {"conditions": "Postemergence, 62 g ai/ha, scale 0 to 100"}, "[4]": {"conditions": "Postemergence, 125 g ai/ha, scale 0 to 100"}, "[5]": {"conditions": "Postemergence, 250 g ai/ha, scale 0 to 100"}, "[6]": {"conditions": "postemergence, 16 g ai/ha, scale 0 to 100, 0 no effect, 100 complete control"}}}
{"smiles": "N#Cc1cccc(Oc2ncc(Br)cn2)c1-n1cc(C(F)(F)F)cn1", "note": "[Compound 59, 3-[(5-bromo-2-pyrimidinyl)oxy]-2-[4-(trifluoromethyl)-1H-pyrazol-1-yl]benzonitrile]", "values": [{"measurement": "pest or weed control at 31 g/ha", "setting": "green foxtail; 31 g ai/ha", "result": 35, "unit": "%"}, {"measurement": "pest or weed control at 62 g/ha", "setting": "green foxtail; 62 g ai/ha", "result": 100, "unit": "%"}, {"measurement": "pest or weed control at 125 g/ha", "setting": "green foxtail; 125 g ai/ha", "result": 100, "unit": "%"}, {"measurement": "pest or weed control at 250 g/ha", "setting": "green foxtail; 250 g ai/ha", "result": 100, "unit": "%"}, {"measurement": "pest or weed control at 31 g/ha", "setting": "barnyardgrass; [2]", "result": 0, "unit": "%"}, {"measurement": "pest or weed control at 62 g/ha", "setting": "barnyardgrass; [3]", "result": 10, "unit": "%"}, {"measurement": "pest or weed control at 125 g/ha", "setting": "barnyardgrass; [4]", "result": 15, "unit": "%"}, {"measurement": "pest or weed control at 250 g/ha", "setting": "barnyardgrass; [5]", "result": 30, "unit": "%"}, {"measurement": "pest or weed control at 16 g/ha", "setting": "barnyardgrass; [6]", "result": 0, "unit": "%"}, {"measurement": "pest or weed control at 31 g/ha", "setting": "chamomile; 31 g ai/ha", "result": 5, "unit": "%"}, {"measurement": "pest or weed control at 62 g/ha", "setting": "chamomile; 62 g ai/ha", "result": 10, "unit": "%"}, {"measurement": "pest or weed control at 125 g/ha", "setting": "chamomile; 125 g ai/ha", "result": 10, "unit": "%"}, {"measurement": "pest or weed control at 250 g/ha", "setting": "chamomile; 250 g ai/ha", "result": 15, "unit": "%"}, {"measurement": "pest or weed control at 31 g/ha", "setting": "canarygrass; 31 g ai/ha", "result": 5, "unit": "%"}, {"measurement": "pest or weed control at 62 g/ha", "setting": "canarygrass; 62 g ai/ha", "result": 15, "unit": "%"}, {"measurement": "pest or weed control at 125 g/ha", "setting": "canarygrass; 125 g ai/ha", "result": 65, "unit": "%"}, {"measurement": "pest or weed control at 250 g/ha", "setting": "canarygrass; 250 g ai/ha", "result": 100, "unit": "%"}, {"measurement": "pest or weed control at 31 g/ha", "setting": "speedwell; 31 g ai/ha", "result": 100, "unit": "%"}, {"measurement": "pest or weed control at 62 g/ha", "setting": "speedwell; 62 g ai/ha", "result": 75, "unit": "%"}, {"measurement": "pest or weed control at 125 g/ha", "setting": "speedwell; 125 g ai/ha", "result": 100, "unit": "%"}, {"measurement": "pest or weed control at 250 g/ha", "setting": "speedwell; 250 g ai/ha", "result": 100, "unit": "%"}, {"measurement": "pest or weed control at 31 g/ha", "setting": "pigweed; 31 g ai/ha, scale 0 (no effect) to 100 (complete control), read-out: Plant response rating, Pigweed", "result": 100, "unit": "%"}, {"measurement": "pest or weed control at 62 g/ha", "setting": "pigweed; 62 g ai/ha, scale 0-100, read-out: Plant response rating, Pigweed", "result": 100, "unit": "%"}, {"measurement": "pest or weed control at 125 g/ha", "setting": "pigweed; 125 g ai/ha, scale 0-100, read-out: Plant response rating, Pigweed", "result": 100, "unit": "%"}, {"measurement": "pest or weed control at 250 g/ha", "setting": "pigweed; 250 g ai/ha, scale 0-100, read-out: Plant response rating, Pigweed", "result": 100, "unit": "%"}, {"measurement": "pest or weed control at 31 g/ha", "setting": "galium; 31 g ai/ha", "result": 0, "unit": "%"}, {"measurement": "pest or weed control at 62 g/ha", "setting": "galium; 62 g ai/ha", "result": 95, "unit": "%"}, {"measurement": "pest or weed control at 125 g/ha", "setting": "galium; 125 g ai/ha", "result": 60, "unit": "%"}, {"measurement": "pest or weed control at 250 g/ha", "setting": "galium; 250 g ai/ha", "result": 100, "unit": "%"}, {"measurement": "pest or weed control at 31 g/ha", "setting": "waterhemp; 31 g ai/ha", "result": 65, "unit": "%"}, {"measurement": "pest or weed control at 62 g/ha", "setting": "waterhemp; 62 g ai/ha", "result": 90, "unit": "%"}, {"measurement": "pest or weed control at 125 g/ha", "setting": "waterhemp; 125 g ai/ha", "result": 90, "unit": "%"}, {"measurement": "pest or weed control at 250 g/ha", "setting": "waterhemp; 250 g ai/ha", "result": 100, "unit": "%"}, {"measurement": "pest or weed control at 31 g/ha", "setting": "[1]; [2]", "result": 85, "unit": "%"}, {"measurement": "pest or weed control at 62 g/ha", "setting": "[1]; [3]", "result": 90, "unit": "%"}, {"measurement": "pest or weed control at 125 g/ha", "setting": "[1]; [4]", "result": 95, "unit": "%"}, {"measurement": "pest or weed control at 250 g/ha", "setting": "[1]; [5]", "result": 100, "unit": "%"}, {"measurement": "pest or weed control at 16 g/ha", "setting": "[1]; [6]", "result": 75, "unit": "%"}, {"measurement": "pest or weed control at 31 g/ha", "setting": "chickweed; 31 g ai/ha", "result": 70, "unit": "%"}, {"measurement": "pest or weed control at 62 g/ha", "setting": "chickweed; 62 g ai/ha", "result": 75, "unit": "%"}, {"measurement": "pest or weed control at 125 g/ha", "setting": "chickweed; 125 g ai/ha", "result": 95, "unit": "%"}, {"measurement": "pest or weed control at 250 g/ha", "setting": "chickweed; 250 g ai/ha", "result": 95, "unit": "%"}, {"measurement": "pest or weed control at 31 g/ha", "setting": "windgrass; 31 g ai/ha, scale 0 (no effect) to 100 (complete control), read-out: Plant response rating, Windgrass", "result": 70, "unit": "%"}, {"measurement": "pest or weed control at 62 g/ha", "setting": "windgrass; 62 g ai/ha, scale 0-100, read-out: Plant response rating, Windgrass", "result": 100, "unit": "%"}, {"measurement": "pest or weed control at 125 g/ha", "setting": "windgrass; 125 g ai/ha, scale 0-100, read-out: Plant response rating, Windgrass", "result": 100, "unit": "%"}, {"measurement": "pest or weed control at 250 g/ha", "setting": "windgrass; 250 g ai/ha, scale 0-100, read-out: Plant response rating, Windgrass", "result": 100, "unit": "%"}, {"measurement": "plant injury at 31 g/ha", "setting": "winter barley; 31 g ai/ha", "result": 10, "unit": "%"}, {"measurement": "plant injury at 62 g/ha", "setting": "winter barley; 62 g ai/ha", "result": 15, "unit": "%"}, {"measurement": "plant injury at 125 g/ha", "setting": "winter barley; 125 g ai/ha", "result": 15, "unit": "%"}, {"measurement": "plant injury at 250 g/ha", "setting": "winter barley; 250 g ai/ha", "result": 25, "unit": "%"}, {"measurement": "plant injury at 31 g/ha", "setting": "spring barley; 31 g ai/ha", "result": 10, "unit": "%"}, {"measurement": "plant injury at 62 g/ha", "setting": "spring barley; 62 g ai/ha", "result": 20, "unit": "%"}, {"measurement": "plant injury at 125 g/ha", "setting": "spring barley; 125 g ai/ha", "result": 20, "unit": "%"}, {"measurement": "plant injury at 250 g/ha", "setting": "spring barley; 250 g ai/ha", "result": 35, "unit": "%"}]}
